The values that follow come from patent EP0415924B1, “REGULATION OF CELL PROLIFERATION AND DIFFERENTIATION USING PEPTIDES” (HOLICK, Michael F, priority 1987, dated 1996).

Experiment [1] relates to cultured human keratinocytes. Kind of experiment: Keratinocyte differentiation: count of cornified envelopes after one week of dosing. It is filed as cell-based. The settings on record: dose-dependent, relative to control cultures, Figures 6 and 7. The protocol:
Keratinocytes were grown in culture as follows. NIH 3T3 cells were plated at 0.5 x 10⁵ cells per 35-mm tissue-culture dish, and two days later were lethally irradiated with a cobalt-60 source (5000 rads). Keratinocytes were obtained from neonatal foreskin after overnight trypsinization at 4°C and treatment with 0.02% EDTA. Keratinocytes were plated in 2 ml of serum-free medium per dish on the lethally irradiated 3T3 cells. Each experiment was performed on primary or secondary keratinocyte cultures obtained from different skin samples. The serum-free medium consisted of Dulbecco's Modified Eagle's Medium (DMEM) with high (1.8 mM) concentration of calcium (M.A. Bioproducts, Walkersville, MD) containing 7 growth factors: epidermal growth factor (25 ng/ml); hydrocortisone (203 ng/ml); insulin (5 µg/ml); prostaglandin E₁ (50 ng/ml); transferrin (5 µg/ml; prostaglandin E₁ (50 ng/ml); cholera toxin (0.1 µg/ml); (Sigma Chemical Co., St. Louis, MO); and selenous acid (2 ng/ml) (Collaborative Research, Lexington, MA). At one week in culture, hydrocortisone and cholera toxin were removed from the medium, and the dishes were washed with 0.02% EDTA to remove any remaining 3T3 cells.
In addition, 1,25-(OH)₂D₃ was tested, alone and in combination with PTH (7-34), and PTH (1-34) and PTH (7-34) were tested together. […]

In experiment [2] the test system is cultured human keratinocytes. Briefly: Keratinocyte culture: counts of total cells and basal cells after one week of dosing. It is filed as cell-based. The settings on record: seven days, dose-dependent, Figures 2-5. As for the experimental part: Keratinocytes were grown in culture as follows. NIH 3T3 cells were plated at 0.5 x 10⁵ cells per 35-mm tissue-culture dish, and two days later were lethally irradiated with a cobalt-60 source (5000 rads). Keratinocytes were obtained from neonatal foreskin after overnight trypsinization at 4°C and treatment with 0.02% EDTA. Keratinocytes were plated in 2 ml of serum-free medium per dish on the lethally irradiated 3T3 cells. Each experiment was performed on primary or secondary keratinocyte cultures obtained from different skin samples. The serum-free medium consisted of Dulbecco's Modified Eagle's Medium (DMEM) with high (1.8 mM) concentration of calcium (M.A. Bioproducts, Walkersville, MD) containing 7 growth factors: epidermal growth factor (25 ng/ml); hydrocortisone (203 ng/ml); insulin (5 µg/ml); prostaglandin E₁ (50 ng/ml); transferrin (5 µg/ml; prostaglandin E₁ (50 ng/ml); cholera toxin (0.1 µg/ml); (Sigma Chemical Co., St. Louis, MO); and selenous acid (2 ng/ml) (Collaborative Research, Lexington, MA). At one week in culture, hydrocortisone and cholera toxin were removed from the medium, and the dishes were washed with 0.02% EDTA to remove any remaining 3T3 cells. […]
After seven days the cultures were evaluated for their total cell content, number of basal cells, and cornified envelopes as described above. […]

Experiment [3] concerns canine adenylate cyclase system. The settings on record: cited from earlier work.

`C=C1/C(=C\C=C2/CCC[C@]3(C)[C@@H]([C@H](C)CCCC(C)(C)O)CC[C@@H]23)C[C@@H](O)C[C@@H]1O` [1,25(OH)₂D₃, 1,25-dihydroxyvitamin D₃]: the “total number of cornified envelopes (percent of control)” value in experiment [1] was “increased, in a dose-dependent manner”. The “total number of cells and the number of basal cells in the cultures” value in experiment [2] was “in a dose-dependent manner decreased”.

“Rat PTH (1-34): rat PTH 1-34 fragment, 5 amino acid sequence difference from the 1-34 region of human and bovine PTH”: the “activity relative to bovine PTH (1-34)” value in experiment [3] (more active than bovine PTH (1-34)) is 2-4 fold. For the same compound, in experiment [3] (more active than human PTH (1-34)), the “activity relative to human PTH (1-34)” value is reported as 8-10 fold.
